“Also recorded” adds a separate entry of the source. Like-named read-outs stand apart in the source and are kept apart here.
Key:
[1] = test system: T7-scv2-luc-GFP replicon (SEQ ID NO: 2); test: microbe, parasite or virus in culture; assay type: cell-based, SARS-CoV-2
[2] = test system: T7GG-scv2-luc-GFP replicon; test: microbe, parasite or virus in culture; assay type: cell-based, SARS-CoV-2
[3] = test system: pSmart BAC T7-scv1-replicon; test: microbe, parasite or virus in culture; assay type: cell-based, SARS-CoV-1; settings: read-out: Antiviral activity (EC50) against T7-scv1-replicon
[4] = test system: pSmart BAC T7-mcv-replicon; test: microbe, parasite or virus in culture; assay type: cell-based, MERS; settings: for EC50: read-out: Antiviral activity (EC50) against T7-mcv-replicon
[5] = test system: pSmart BAC T7-scv2-replicon; test: microbe, parasite or virus in culture; assay type: cell-based, SARS-CoV-2; settings: read-out: Antiviral activity (EC50) against T7-scv2-replicon
[6] = Severe acute respiratory syndrome coronavirus 2, Calu-1
[7] = Severe acute respiratory syndrome coronavirus 2, Huh7.5
[8] = Severe acute respiratory syndrome coronavirus 2, HEK-293T
[9] = Severe acute respiratory syndrome coronavirus 2, A549
[10] = Severe acute respiratory syndrome coronavirus 2, Vero
[11] = Severe acute respiratory syndrome coronavirus, HEK-293T
[12] = Middle East respiratory syndrome-related coronavirus, HEK-293T

Compound | EC50 [1, 6] | EC50 [1, 7] | EC50 [2, 8] | EC50 [1, 9] | EC50 [1, 8] | EC50 [1, 10] | EC50 [3, 11] | EC50 [4, 12] | EC50 [5, 8] | EC50 [3] | EC50 [4] | EC50 [5] | also measured
Cc1cccc(/C=N/Nc2cc(N3CCOCC3)nc(OCCc3ccccn3)n2)c1 [Apilimod, apilimod] | > 42000 nM | > 42000 nM | > 42000 nM |  |  |  |  |  |  |  |  |  | 
CN(C)C(=O)COC(=O)Cc1ccc(OC(=O)c2ccc(NC(=N)N)cc2)cc1 [Camostat, camostat] | > 42000 nM |  | > 42000 nM | > 42000 nM | > 42000 nM | > 42000 nM |  |  |  |  |  |  | 
N#C[C@@]1(c2ccc3c(N)ncnn23)O[C@H](CO)[C@@H](O)[C@H]1O [GS-441524] | 1330 ± 270 nM | 1030 ± 354 nM | 657 ± 66.4 nM | 1470 ± 163 nM | 603 ± 131 nM | 302 ± 19.8 nM | 1110 ± 86.5 nM | 5580 ± 357 nM | 603 ± 106 nM |  |  |  | cytotoxicity (293T cells): No cytotoxicity was detected; concentration to achieve 50% inhibition, MERS replicon compared with SARS-CoV-2 or SARS-CoV-1 replicon [4]: greater concentration; EC50 ([1]; Severe acute respiratory syndrome coronavirus 2, HEK-293T, 30 h, read-out: potency in inhibiting SARS-CoV-2 replicon replication (EC50), determined by % GFP signal): 645 ± 54.3 nM; EC50 ([1]; Severe acute respiratory syndrome coronavirus 2, HEK-293T, 30 h, read-out: potency in inhibiting SARS-CoV-2 replicon replication (EC50), determined by % luciferase activity): 502 ± 109 nM; antiviral activity (in words) [2]: active; EC50 [2, 9]: 716 ± 311 nM; EC50 [2, 6]: 1000 ± 217 nM; EC50 [2, 7]: 831 ± 201 nM; EC50 [2, 10]: 324 ± 173 nM
CC(C)(C)NC(=O)N[C@H](C(=O)N1C[C@H]2[C@@H]([C@H]1C(=O)NC(CC1CCC1)C(=O)C(N)=O)C2(C)C)C(C)(C)C (stereo partly shown) [MK-3034, Boceprevir] |  |  |  |  |  |  | 6410 ± 427 nM | 4670 ± 519 nM | 3550 ± 346 nM |  |  |  | 
N=C(N)c1ccc2cc(OC(=O)c3ccc(N=C(N)N)cc3)ccc2c1 [Nafamostat, nafamostat] | > 42000 nM |  | > 42000 nM | > 42000 nM | > 42000 nM |  |  |  |  |  |  |  | EC50 ([1]; Severe acute respiratory syndrome coronavirus 2, Vero C1008): > 42000 nM
CC(C)C[C@H](NC(=O)c1cc2ccccc2o1)C(=O)N[C@H]1CC[C@@H](C)N(S(=O)(=O)c2ccccn2)CC1=O [Relacatib, relacatib] | > 42000 nM |  | > 42000 nM | > 42000 nM | > 42000 nM | > 42000 nM |  |  |  |  |  |  | 
CCC(CC)COC(=O)[C@H](C)N[P@](=O)(OC[C@H]1O[C@@](C#N)(c2ccc3c(N)ncnn23)[C@H](O)[C@@H]1O)Oc1ccccc1 [Remdesivir, remdesivir] | 62.8 nM | 18.9 nM |  | 184 nM | 11.3 nM | 2240 nM | 42.9 ± 3.4 nM | 81.5 ± 8.8 nM | 15.6 ± 5.1 nM |  |  |  | 
GC373 |  |  |  |  |  |  |  |  |  | 74 ± 4.5 nM | 29.2 ± 3.7 nM | 19.7 ± 4.6 nM | 
GC376 |  |  |  |  |  |  |  |  |  | 75.9 ± 23.2 nM | 35.2 ± 5.3 nM | 20.8 ± 5.6 nM | cytotoxicity (293T cells): No cytotoxicity was detected; EC50 ([1]; read-out: potency in inhibiting SARS-CoV-2 replicon replication (EC50), determined by % GFP signal): 22 ± 5.13 nM; EC50 ([1]; read-out: potency in inhibiting SARS-CoV-2 replicon replication (EC50), determined by % luciferase activity): 29.2 ± 9.17 nM; antiviral activity (in words) [2]: highly potent; also recorded: modestly active
PF-00835231 |  |  |  |  |  |  |  |  |  | 167 ± 15.3 nM | 101 ± 33 nM | 74.8 ± 20 nM | fold lower in Vero cells [2]: 75-300 fold

Source: US20230357870A1 (priority 2020, published 2023)
